# Where a SMILES comes first, the peptide text is derived from it. Where no end group is shown, it is not given here. The star is where a group is joined. Biotin = O=C1N[C@H]2[C@H](CS[C@H]2CCCCC(=O)*)N1; Cbz = O=C(OCc1ccccc1)*; CH2F = FC*
# Key:
# [1] = target: T1, eIF4E in MRC5 cell lysate (Homo sapiens, UniProt P06730); test: pull-down of eIF4E from MRC5 cell lysate; type: binding; conditions: 0.2 mM peptide, 200 μg MRC5 cell lysate, 1 h at 4° C.
# T1 construct: endogenous in cells; host or cells: MRC5
# Method: (§1) Sequences of biotinylated, penetratin-linked peptides. U=Norvaline, a substitution for cysteine. Conserved residues that are important in binding to eIF4E are underlined. b). In vitro binding assay. i) 1 μg recombinant eIF4E was incubated with 0.2 mM biotinylated peptides in a total volume of 50 μl wash buffer (1×PBS/250 mM Kcl) for 1 h at 4° C. ii) 0.2 mM Hu4G or Hu4G YLL-AAA was incubated with 200 μg MRC5 cell lysate for 1 h at 4° C. in a total volume of 50 μl wash buffer. In all cases the biotinylated peptides and associated proteins were pulled down using streptavidin agarose. The proteins were separated by SDS PAGE and subjected to Western blotting using anti-eIF4E antibody. Detection was by ECL;
# MRC5 cells [2] = test: peptide-induced cell death (apoptosis) in MRC5 cells; type: cell-based; conditions: for biological effect (apoptosis): MRC5 cells / cultured mammalian cells
# Text: FIG. 8 is a table illustrating the induction of apoptosis by eIF4G peptides in MRC5 cells;
# FIG. 9 is a summary of the results of inhibition of eIF4G(413-424)-induced apoptosis;
# MRC5 cells [3] = test: TUNEL analysis; type: cell-based; conditions: 10 μM peptide
# Method: (§2) MRC5 cells were incubated with 10 μM Hu4G peptide for 10 min. Cells visualised with fluorescein by fluorescence microscopy. […] 80% of cells incubated with the 10 μM Hu4G peptide fluoresced positive. d) Images of DAPI-stained MRC5 cells incubated with either 20 μM Hu4G or Hu4G YLL-AAA peptide for 40 min. Arrows indicate the position of a cell with either a condensed nucleus (top right) or a nucleus with a punctate appearance (bottom left). e) Visualisation of effects on the MPT. Serum-starved MRC5 cells were loaded with 0.1 μM JCl for 30 min prior to addition of 10 μM peptide. Changes in mitochondrial permeability were viewed by laser scanning confocal microscopy (krypton/argon laser) using identical setting. Green channel: excitation 488 nm/emission 522 nm. Red channel: excitation 568 nm/emission 585 nm. Channels were collected separately to avoid cross over. Images were taken 5 min after addition of the peptide;
# MRC5 cells [4] = test: mitochondrial permeability transition (JC1 dye, confocal microscopy); type: cell-based; conditions: 10 μM peptide, serum-starved MRC5 cells
# Method: as §2
# An early event considered decisive in apoptosis is the opening of the mitochondrial permeability transition (MPT) pore (20–22). To characterise further the eIF4E-binding peptide-induced cell death, the development of the MPT was investigated in living MRC5 cells loaded with the fluorescent dye, JC1 (21).
# recombinant human eIF4E [5] = target: recombinant human eIF4E (Homo sapiens, UniProt P06730); test: in vitro binding (pull-down) assay with eIF4E; conditions: for interaction with human eIF4E: FIG. 12b(i), 1 μg recombinant eIF4E, 0.2 mM biotinylated peptide, 1 h at 4° C.
# Method: as §1
# In order to study directly the role of eIF4E in cell transformation, a series of biotinylated synthetic peptides (Peptides synthesised by Cyclacel) corresponding to the eIF4E interacting domain (binding motif) of human eIF4G, and wheat eIF4G and alanine substituted peptides thereof were synthesised (see FIG. 12a) and tested for their capacity to interact with ^35S-Met labelled in vitro translated human eIF4E (NB. Peptides BP1 and BP1 YLM-AAA were not biotinylated). Peptides were coupled to streptavidin coated agarose beads by a N-terminus linked biotin group and washed in PBS/0.2% Tween 3× before being incubated for 1 hour at +4° C. with in vitro translated human eIF4E. Beads were washed as above and boiled for 5 min. in SDS loading buffer before the peptide bound proteins were separated on a 10% SDS gel. The bands were visualised by autoradiography.
# [6] = test system: HaCaT, Swiss 3T3, RATI and IIeLa cells; test: cell survival in other cell-types; type: cell-based; conditions: results not shown
# MRC5 cells [7] = test: cell survival by MTT assay; type: cell-based; conditions: for cell death / cell viability: various concentrations, 72 h serum-starved MRC5 cells, FIGS. 13b,c,d
# Method: FIGS. 13a–d are graphs showing cell survival (% of control, untreated cells) as measured by MTT assay. a) Lane 1: 10 μM BP2 peptide added to serum-fed cells or Lane 2, 3, 4: 10 μM BP2 peptide added to 24 h, 48 h or 72 h serum-starved cells respectively. Lane 5: 10 μM BP2 YLL-AAA added to 72 h serum starved cells. Lane 6: 72 h serum starved cells incubated in 10% serum for 1 h prior to addition to 10 μM BP2 peptide. Lane 7: 72 h serum starved cells incubated with 100 μg/ml cycloheximide followed by a 1 h incubation with 10% serum prior to the addition of 10 μM BP2 peptide. In all cases the cells were then further incubated for 1 h in 0.1 mg/ml MTT. Cells were lysed in DMSO and absorbance was measured at […]. b–d) Varying concentrations of peptides were added to 72 h serum starved MRC5 cells. After 30 min incubation the cells were then further incubated for 1 h in 0.1 mg/ml MTT. Cells were lysed in DMSO and absorbance was measured at 570 nm.
# MRC5 cells [8] = test: MTT assay with general translation inhibitors (FIG. 16); type: cell-based; conditions: for protection against the effect of the Hu4G peptide: pre-incubation 30 min prior to 10 μM Hu4G peptide; for cell killing: serum deprived cells
# Method: (§3) FIG. 16 illustrates that eIF4E binding peptide cell death is not through eIF4E's known role in mRNA translation. a) 72 h serum-starved MRC5 cells were treated with 100 μg/ml and 10 μg/ml cylcoheximide, 1 μg/ml and 0.1 μg/ml pactamycine or 10 μM Hu4G peptide for 2 h prior to a MTT assay. Cells were pulsed labelled with [^35S]methionine for 30 min after addition of the inhibitors/peptide. The incorporation of [^35S]methionine into protein was determined following hot trichloroacetic acid precipitation. b) 72 h serum-starved MRC5 cells were treated with 100 μg/ml cycloheximide (Chx), 1 μg/ml pactamycine (Pact) or c) MRC5 cells which had been starved of serum for 72 h were pre-incubated with 100 μg/ml cycloheximide or 1 μg/ml pactamycine for 30 min prior to addition of 10 μM Hu4G peptide. Cells were then further incubated for 1.5 h prior to a MTT assay. Results from three independent experiments (+/− SEM).
# MRC5 cells [9] = test: [35S]methionine incorporation into protein; type: cell-based; conditions: serum deprived cells, 30 minutes
# Method: as §3
# Serum deprived cells were treated with the general translation inhibitors Cyclohexamide or Pactamycin at indicated concentrations or the H4G peptide in the presence of 35S-Met for 30 minutes (see FIGS. 16a,b). Cells were lysed and the amount of translation was estimated by counting incorporated 35S-Met in precipitated protein fractions.
# serum deprived cells = test: protection from peptide-induced cell death by serum / MAP kinase activation (FIG. 15); type: cell-based
# Method: FIG. 15 illustrates that the acute activation of MAP kinase protects cells from 4E-binding peptide induced cell death; and
# In the presence of 10% ECS, cells were resistant to treatment with 20 μm of the peptides. Cells only died if they were serum deprived for 72 hours (more than 85%) within 15 minutes after the peptide had been applied (see FIG. 15). However, if serum deprived cells (72 h) were pre-treated with 10% FCS or with 20 nM PMA (phorbol ester) for 15 minutes before the peptides were added, the cells survived the subsequent peptide treatment (60–70%).
# Furthermore, if the serum deprived cells were instead pre-treated with the MAPK inhibitor PD098059 for 1 hour before 10% FCS was added, approximately 80–90% of the cells died.
# [10] = test system: cap-independent translation initiation; test: in vitro translation assay, cap-independent; type: biochemical
# [11] = test system: cap-dependent translation initiation; test: in vitro translation assay, cap-dependent; type: biochemical
# recombinant human eIF4E [12] = target: T2, recombinant human eIF4E (human, UniProt P06730 1-217, limits assumed); test: streptavidin agarose pull-down with biotinylated peptide
# T2 construct: also called in vitro translated human eIF4E; eukaryotic initiation factor 4E
# Method: as §1, with “FIG. 12 illustrates that eIF4E-binding peptides leads to rapid, dose-dependent, cell death. a). Sequences” for “Sequences”, “µg” for “μg”, “µl” for “μl”
# recombinant human eIF4E [13] = target: T2, recombinant human eIF4E; test: in vitro pull-down of recombinant human eIF4E (FIG. 5)
# recombinant human eIF4E (Homo sapiens, UniProt P06730), sequence (P06730 whole entry): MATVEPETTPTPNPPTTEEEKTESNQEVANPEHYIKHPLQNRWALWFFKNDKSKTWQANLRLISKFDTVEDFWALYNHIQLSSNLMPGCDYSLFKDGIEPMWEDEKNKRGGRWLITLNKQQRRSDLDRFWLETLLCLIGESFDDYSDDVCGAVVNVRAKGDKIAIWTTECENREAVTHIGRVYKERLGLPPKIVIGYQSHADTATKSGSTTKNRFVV
# T2 sequence (P06730 whole entry): as above
# T1 sequence (P06730 whole entry): as above
molecule,measurement,setting,value
"Hu4G YLL-AAA: triple alanine substituted, penetratin-linked human eIF4G peptide, unable to bind eIF4E (KKRADREFAAGFRQIKIWFQNRRMKWKK)",binding of eIF4E in cell lysates,[1],did not
same,biological effect (apoptosis),MRC5 cells [2]; FIG. 8,did not cause the observed biological effect (apoptosis)
same,TUNEL signal,MRC5 cells [3],No signal was observed
same,changes in JC1 fluorescence (MPT pore opening),MRC5 cells [4],No changes in florescence were observed
same,interaction with human eIF4E,recombinant human eIF4E [5],did not interact with eIF4E
same,cell survival,[6],no effect on cell survival
"W4G: biotinylated, penetratin-linked peptide of the eIF4E binding motif of wheat eIF4G (Biotin-RVRYSRDQLLDLRQIKIWFQNRRMKWKK)",cell death / cell viability,MRC5 cells [7],"rapid, dose-dependent, cell death"
same,effect of limited serum treatment on sensitivity to the peptide,MRC5 cells [2]; FIG. 9,Resistance
same,cell death (possibly by apoptosis),"MRC5 cells [2]; serum starved cell lines, FIG. 8",caused rapid cell death
C[C@@H]1C[C@@H]([C@H](O)CC2CC(=O)NC(=O)C2)C(=O)[C@@H](C)C1 [cycloheximide],protection against the effect of the Hu4G peptide,MRC5 cells [8],did not result in any protection
same,cell killing,MRC5 cells [8],do not kill the cells
same,effect on protective effect of serum,"MRC5 cells [7]; pre-incubation with 100 μg/ml, then 10% serum 1 h, then 10 μM BP2 peptide",could not be inhibited
same,incorporation of 35S-Met (translation),MRC5 cells [9],block translation
"COc1cccc(-c2cc(=O)c3ccccc3o2)c1N [PD098059, reference compound]",cells died,serum deprived cells; serum deprived cells pre-treated for 1 hour before 10% FCS was added,80–90%
same,effect on serum induced resistance to the peptides,MRC5 cells [2]; pre-treatment with the MEK inhibitor,serum induced resistance could be inhibited
RVRYSRDQLLDL (listed as Triticum aestivum) [wheat eIF4G(62-73)],inhibition of cap-independent translation initiation in vitro,[10],not cap-independent translation initiation
same,inhibition of cap-dependent translation initiation in vitro,[11],found to inhibit cap-dependent translation initiation
same,binding to recombinant human eIF4E in vitro,"recombinant human eIF4E [5]; FIG. 4, FIG. 5",bound to and pulled down more recombinant human eIF4F in vitro than human eIF4G(569-580) did
CC(=O)c1cccc(N[C@H]2[C@H](N)[C@@](NC(=O)N(C)C)([C@H](C)O)[C@@](C)(O)[C@@]2(O)COC(=O)c2c(C)cccc2O)c1 [pactamycin],protection against the effect of the Hu4G peptide,MRC5 cells [8],did not result in any protection
same,cell killing,MRC5 cells [8],do not kill the cells
same,incorporation of 35S-Met (translation),MRC5 cells [9],block translation
"Hu4G Y-A: singly alanine-substituted, penetratin-linked human eIF4G peptide (KKRADREFLLGFRQIKIWFQNRRMKWKK)",cell death / cell viability,MRC5 cells [7],reduced capacity to induce cell death
same,biological effect (apoptosis),MRC5 cells [2]; FIG. 8,intermediate biological effect
same,interaction with human eIF4E,recombinant human eIF4E [5],lower binding affinity
CCCCCCCCCCCCCC(=O)O[C@@H]1[C@@H](C)[C@@]2(O)[C@@H](C=C(CO)C[C@]3(O)C(=O)C(C)=C[C@@H]23)[C@@H]2C(C)(C)[C@]12OC(C)=O [PMA],cells survived the subsequent peptide treatment,serum deprived cells; serum deprived cells (72 h) pre-treated with 20 nM for 15 minutes,60–70%
"COC(=O)C[C@H](NC(=O)[C@H](C)NC(=O)[C@@H](NC(=O)OCc1ccccc1)C(C)C)C(=O)CF [ZVAD.fmk, reference compound] (Cbz-Val-Ala-Asp(OMe)-CH2F)",effect of pre-treatment on peptide-induced cell death,"MRC5 cells [2]; MRC5 cells, results not shown",did not affect peptide-induced cell death
"KKRADREFAAGFRQIKIWFQNRRMKWKK (not fully specified (N-terminus), Order of pieces from the printed name; also called Hu4G YLL-AAA; triple alanine human eIF4G peptide) [Human eIF4G(569-580)Y416AL421AL422A-Penetratin]",binding result,recombinant human eIF4E [12],no binding (tested: 0.2 mM peptide (FIG. 12b legend))
KKRYDREFLLGF (also called human eIF4G413-424) [human eIF4G(569-580)],binding result,recombinant human eIF4E [13],binds
RVRYSRDQLLDL [wheat eIF4G(62-73)],binding result,recombinant human eIF4E [13],binds
